B1: anti-Trop2 positive clone 3 (T3), phage scFv (scFv)
scFv: DIQMTQSPSTLSASVGDRVTITCRASQSISSWLAWYQQKPGKAPKLLIYKASSLESGVPPRFSGSGSGAEFTLTISSLQPDDFATYYCQQYNSYPLTFGGGTKVEVKGGGGSGGGGSGGGGSEVQLVQSGGGLVQPGGSLRLSCEDSGFTFSSYWMSWVRQAPGKGLEWVSSISSSSSYIYYADSVKGRFTISRDNAKNSLYLQMNSLRGEDTAVYYCAREQSSSGFDYWGQGTLVTVSS
notes: also called T3 clone; T3 anti-Trop2 scFv

How the values were obtained:
[1] = test system: NSCLC; settings: 44 patients with NSCLC; cited from earlier work
[2] = test system: small cell lung cancer; settings: 50 patients with small cell lung cancer; cited from earlier work
[3] = test system: triple-negative breast cancer; settings: third-line treatment; cited from earlier work
[4] = test system: advanced NSCLC; settings: patients with advanced NSCLC; cited from earlier work
[5] = molecular target: T1, Human TROP-2/TACSTD2 Protein, His Tag (ACRO, catalog No. TR2-H5223) (human, UniProt P09758 27-274); experiment: phage ELISA, Trop2-His coated at 1 µg/mL, anti-M13-HRP detection
T1 construct: extracellular domain; Bought protein; also called Trop2-His; Trop2-His antigen; not shown: His tag
T1 sequence (looked up): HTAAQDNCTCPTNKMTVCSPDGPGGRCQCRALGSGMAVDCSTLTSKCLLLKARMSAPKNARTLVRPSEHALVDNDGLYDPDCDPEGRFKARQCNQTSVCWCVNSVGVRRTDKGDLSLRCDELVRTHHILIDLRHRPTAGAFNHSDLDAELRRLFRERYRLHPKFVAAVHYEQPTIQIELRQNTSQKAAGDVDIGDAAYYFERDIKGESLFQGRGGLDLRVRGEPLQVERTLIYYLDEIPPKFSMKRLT

Molecule	PFS [1] [months]	clinical benefit rate (complete response + partial response + stable disease ≥ 4 months) [1] [%]	objective response rate (ORR) [1] [%]	ORR [2] [%]	PFS [2] [months]	clinical benefit rate (complete response + partial response + stable disease ≥ 4 months) [2] [%]	disease control rate [3] [%]	patients who experienced tumor shrinkage at least once [3] [%]	progression-free survival (PFS) rate [3] [%]	overall survival [4] [months]	binding result [5]
Sacituzumab govitecan [IMMU-132]	5.2	43	19	14	3.7	34	45	74	33.3	9.5	–
B1	–	–	–	–	–	–	–	–	–	–	binds
